Measured values as given in patent US20250236608A1, “EGFR INHIBITORS” (Blueprint Medicines Corporation, priority 2022, published 2025).

How the values were obtained:
EGFR L858R = EGFR L858R (Homo sapiens (Human), UniProt P00533, L858R); experiment: Biochemical EGFR inhibition assay, EGFR L858R; conditions: Caliper mobility shift; 1.0 mM ATP or ATP Km; read-out: Enz EGFR_L858R IC50
EGFR (d746-750) = EGFR (d746-750) (Homo sapiens (Human), UniProt P00533, DEL746-750); experiment: Biochemical EGFR inhibition assay, EGFR (d746-750); conditions: Caliper mobility shift; 1.0 mM ATP or ATP Km; read-out: Enz EGFR_Exon19-del746-750 IC50
[1] = target: pEGFR (Tyr1068) in PC-9 cells (Ex19Del) (Homo sapiens (Human), UniProt P00533, DEL746-750); experiment: PC-9 pEGFR AlphaLISA assay; type: cell-based; conditions: 4 hours incubation, p-EGFR (Tyr1068) AlphaLISA, read-out: Ext pEGFR_PC-9 Ex19Del IC50
In short: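 First, cells settled overnight in 10% FBS medium. Second, a 10-point, 4-fold series of test agents was applied for 4 h at 37° C. Third, lysates were probed with AlphaLISA acceptor and donor beads, incubated overnight in the dark. Last, IC50 was taken from the dose-response.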

EGFR L858R, sequence (P00533 25-1210 L858R): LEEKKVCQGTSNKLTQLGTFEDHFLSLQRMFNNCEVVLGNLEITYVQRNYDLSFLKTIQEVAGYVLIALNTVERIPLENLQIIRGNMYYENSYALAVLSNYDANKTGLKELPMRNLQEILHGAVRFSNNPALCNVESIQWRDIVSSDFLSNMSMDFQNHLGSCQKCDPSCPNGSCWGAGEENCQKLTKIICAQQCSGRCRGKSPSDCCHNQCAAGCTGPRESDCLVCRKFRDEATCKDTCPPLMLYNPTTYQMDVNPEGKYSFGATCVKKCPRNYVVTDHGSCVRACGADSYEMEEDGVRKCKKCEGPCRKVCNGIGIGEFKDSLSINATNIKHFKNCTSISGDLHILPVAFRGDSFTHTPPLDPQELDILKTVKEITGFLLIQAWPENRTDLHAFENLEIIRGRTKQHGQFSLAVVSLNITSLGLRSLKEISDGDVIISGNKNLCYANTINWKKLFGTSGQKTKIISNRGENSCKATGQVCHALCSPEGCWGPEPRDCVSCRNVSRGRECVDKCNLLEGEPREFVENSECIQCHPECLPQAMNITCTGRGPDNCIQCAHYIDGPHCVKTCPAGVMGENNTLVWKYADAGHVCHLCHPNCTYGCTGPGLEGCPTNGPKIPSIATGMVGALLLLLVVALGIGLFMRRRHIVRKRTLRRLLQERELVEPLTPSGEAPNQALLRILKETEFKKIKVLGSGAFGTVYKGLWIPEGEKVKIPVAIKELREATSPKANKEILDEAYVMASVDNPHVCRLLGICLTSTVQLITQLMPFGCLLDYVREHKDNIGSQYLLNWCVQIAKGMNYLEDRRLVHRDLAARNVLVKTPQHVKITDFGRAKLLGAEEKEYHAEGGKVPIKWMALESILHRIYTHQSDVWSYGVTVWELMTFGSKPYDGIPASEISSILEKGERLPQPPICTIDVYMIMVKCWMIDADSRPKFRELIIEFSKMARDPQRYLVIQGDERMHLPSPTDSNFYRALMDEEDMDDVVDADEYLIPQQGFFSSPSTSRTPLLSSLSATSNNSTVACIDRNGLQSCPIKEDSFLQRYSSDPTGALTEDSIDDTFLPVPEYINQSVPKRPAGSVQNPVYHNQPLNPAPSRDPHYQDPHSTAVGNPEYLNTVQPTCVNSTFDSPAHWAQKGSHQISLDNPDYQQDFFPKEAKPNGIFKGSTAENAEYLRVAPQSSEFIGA
EGFR (d746-750), sequence (P00533 other isoform, or with tags, fused parts or gaps del 1-694/del 746-750 limits assumed): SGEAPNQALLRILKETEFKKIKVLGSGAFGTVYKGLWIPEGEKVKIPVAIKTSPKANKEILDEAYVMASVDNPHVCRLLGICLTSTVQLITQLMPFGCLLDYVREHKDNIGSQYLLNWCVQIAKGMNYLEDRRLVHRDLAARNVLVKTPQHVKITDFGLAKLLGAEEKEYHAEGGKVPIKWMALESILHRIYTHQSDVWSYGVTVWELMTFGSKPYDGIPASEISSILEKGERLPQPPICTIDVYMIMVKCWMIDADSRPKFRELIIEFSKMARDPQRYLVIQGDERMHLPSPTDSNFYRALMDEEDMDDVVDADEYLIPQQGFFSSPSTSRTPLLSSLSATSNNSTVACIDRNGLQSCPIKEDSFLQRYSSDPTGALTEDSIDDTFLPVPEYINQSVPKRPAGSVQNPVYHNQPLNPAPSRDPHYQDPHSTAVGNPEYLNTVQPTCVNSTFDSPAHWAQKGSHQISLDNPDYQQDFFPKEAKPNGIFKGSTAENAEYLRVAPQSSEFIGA
pEGFR (Tyr1068) in PC-9 cells (Ex19Del), sequence (P00533 other isoform, or with tags, fused parts or gaps del 746-750): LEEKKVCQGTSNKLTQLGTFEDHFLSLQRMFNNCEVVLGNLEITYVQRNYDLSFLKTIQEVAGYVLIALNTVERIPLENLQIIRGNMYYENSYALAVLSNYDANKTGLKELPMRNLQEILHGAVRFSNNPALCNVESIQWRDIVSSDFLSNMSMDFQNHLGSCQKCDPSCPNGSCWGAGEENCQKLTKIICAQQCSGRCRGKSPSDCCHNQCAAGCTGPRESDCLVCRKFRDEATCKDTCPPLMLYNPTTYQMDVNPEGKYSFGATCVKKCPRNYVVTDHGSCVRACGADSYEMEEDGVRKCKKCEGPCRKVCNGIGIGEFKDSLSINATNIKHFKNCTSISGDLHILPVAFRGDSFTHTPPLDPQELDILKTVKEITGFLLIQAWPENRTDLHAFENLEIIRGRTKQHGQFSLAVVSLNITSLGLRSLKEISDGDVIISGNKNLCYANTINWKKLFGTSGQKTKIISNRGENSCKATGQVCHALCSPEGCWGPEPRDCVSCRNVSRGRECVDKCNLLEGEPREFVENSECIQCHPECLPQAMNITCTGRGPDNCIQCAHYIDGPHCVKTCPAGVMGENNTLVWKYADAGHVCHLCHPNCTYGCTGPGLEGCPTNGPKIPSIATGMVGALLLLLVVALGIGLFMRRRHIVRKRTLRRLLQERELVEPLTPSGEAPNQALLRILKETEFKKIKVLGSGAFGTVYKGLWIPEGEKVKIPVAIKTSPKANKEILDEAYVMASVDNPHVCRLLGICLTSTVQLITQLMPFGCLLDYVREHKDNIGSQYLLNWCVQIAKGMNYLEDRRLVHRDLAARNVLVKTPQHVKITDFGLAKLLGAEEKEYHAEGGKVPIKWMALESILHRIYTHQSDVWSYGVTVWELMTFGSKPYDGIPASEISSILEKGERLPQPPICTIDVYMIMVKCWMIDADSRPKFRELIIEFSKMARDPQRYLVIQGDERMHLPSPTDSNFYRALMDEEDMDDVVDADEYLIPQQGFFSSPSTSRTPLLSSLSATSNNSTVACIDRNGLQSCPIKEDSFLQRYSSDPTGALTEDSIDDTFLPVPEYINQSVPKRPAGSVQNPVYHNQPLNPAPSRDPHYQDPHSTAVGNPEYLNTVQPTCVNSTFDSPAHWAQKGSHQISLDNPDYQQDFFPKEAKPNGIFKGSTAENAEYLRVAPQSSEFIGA

IC50 (EGFR L858R) [nM]	IC50 (EGFR (d746-750)) [nM]	IC50 [1] [nM]	Compound
1.5	0.9	4.8	CCOc1cc2ncnc(-c3cn(C)nc3-c3ccccc3)c2cc1NC(=O)[C@]12C[C@H]1CN(C)C2 (single isomer, unassigned) [Example 257, (1R,5R)—N-(7-ethoxy-4-(1-methyl-3-phenyl-1H-pyrazol-4-yl)quinazolin-6-yl)-3-methyl-3-azabicyclo[3.1.0]hexane-1-carboxamide or (1S,5S)—N-(7-ethoxy-4-(1-methyl-3-phenyl-1H-pyrazol-4-yl)quinazolin-6-yl)-3-methyl-3-azabicyclo[3.1.0]hexane-1-carboxamide]
1.7	0.9	1.9	CCn1cc(-c2ncnc3cc(OC)c(N4CCOCC4)cc23)c(-c2ccccc2)n1 [Example 169, 4-(4-(1-ethyl-3-phenyl-1H-pyrazol-4-yl)-7-methoxyquinazolin-6-yl)morpholine]
3.6	2.5	12.5	COc1cc2ncnc(-c3cn(C)nc3-c3ccccc3)c2cc1C(O)C1CC1 (stereo not drawn) [Example 128, cyclopropyl (7-methoxy-4-(1-methyl-3-phenyl-1H-pyrazol-4-yl)quinazolin-6-yl)methanol]
2.7	0.8	3.8	COc1cc2ncnc(-c3cn(C)nc3-c3ccccc3)c2nc1NC(=O)c1cccc(F)c1 [Example 313, 3-fluoro-N-(7-methoxy-4-(1-methyl-3-phenyl-1H-pyrazol-4-yl)pyrido[3,2-d]pyrimidin-6-yl)benzamide]
141	1.6	2	CCOc1cc2ncnc(-c3cn(C)nc3-c3ccccc3F)c2nc1NC(=O)[C@@]12C[C@@H]1CN(C)C2 (single isomer, unassigned) [Example 400, (1S,5S)—N-(7-ethoxy-4-(3-(2-fluorophenyl)-1-methyl-1H-pyrazol-4-yl)pyrido[3,2-d]pyrimidin-6-yl)-3-methyl-3-azabicyclo[3.1.0]hexane-1-carboxamide or (1R,5R)—N-(7-ethoxy-4-(3-(2-fluorophenyl)-1-methyl-1H-pyrazol-4-yl)pyrido[3,2-d]pyrimidin-6-yl)-3-methyl-3-azabicyclo[3.1.0]hexane-1-carboxamide]
2.3	1.2	10.6	COc1cc2ncnc(-c3cn(C)nc3-c3ccccc3)c2cc1[C@@H](C)O (single isomer, unassigned) [Example 115, (R)-1-(7-methoxy-4-(1-methyl-3-phenyl-1H-pyrazol-4-yl)quinazolin-6-yl)ethan-1-ol or (S)-1-(7-methoxy-4-(1-methyl-3-phenyl-1H-pyrazol-4-yl)quinazolin-6-yl)ethan-1-ol]
2.1	1.1	1.7	COc1cc2ncnc(-c3cn(C)nc3-c3ccccc3F)c2nc1NC(=O)[C@]12COC[C@H]1C2 (single isomer, unassigned) [Example 386, (1S,5S)—N-(4-(3-(2-fluorophenyl)-1-methyl-1H-pyrazol-4-yl)-7-methoxypyrido[3,2-d]pyrimidin-6-yl)-3-oxabicyclo[3.1.0]hexane-1-carboxamide or (1R,5R)—N-(4-(3-(2-fluorophenyl)-1-methyl-1H-pyrazol-4-yl)-7-methoxypyrido[3,2-d]pyrimidin-6-yl)-3-oxabicyclo[3.1.0]hexane-1-carboxamide]
3.6	1.7	4.9	COc1cc2ncnc(-c3cn(C)nc3-c3ccccc3)c2cc1NC(=O)c1ccc(C(F)F)nc1 [Example 352, 6-(difluoromethyl)-N-(7-methoxy-4-(1-methyl-3-phenyl-1H-pyrazol-4-yl)quinazolin-6-yl)nicotinamide]
2.9	2	7.6	COc1cc2ncnc(-c3cn(C)nc3-c3ccccc3)c2cc1C(C)O (stereo not drawn) [Example 100, 1-(7-methoxy-4-(1-methyl-3-phenyl-1H-pyrazol-4-yl)quinazolin-6-yl)ethan-1-ol]
2	0.7	2.1	COc1cc2ncnc(-c3cn(C)nc3-c3ccccc3)c2nc1NC(=O)c1cnn(C(F)(F)F)c1C [Example 427, N-(7-methoxy-4-(1-methyl-3-phenyl-1H-pyrazol-4-yl)pyrido[3,2-d]pyrimidin-6-yl)-5-methyl-1-(trifluoromethyl)-1H-pyrazole-4-carboxamide]
1.2	1.1	11.5	COc1cc2ncnc(-c3cn(C)nc3-c3ccccc3)c2cc1[C@H](C)O (single isomer, unassigned) [Example 116, (S)-1-(7-methoxy-4-(1-methyl-3-phenyl-1H-pyrazol-4-yl)quinazolin-6-yl)ethan-1-ol or (R)-1-(7-methoxy-4-(1-methyl-3-phenyl-1H-pyrazol-4-yl)quinazolin-6-yl)ethan-1-ol]
1.5	0.8	0.9	COc1cc2ncnc(-c3cn(C)nc3-c3ccccc3)c2cc1NC(=O)c1cnc(C2CC2)s1 [Example 209, 2-cyclopropyl-N-(7-methoxy-4-(1-methyl-3-phenyl-1H-pyrazol-4-yl)quinazolin-6-yl)thiazole-5-carboxamide]
6.9	2.7	9.3	COc1cc2ncnc(-c3cn(C)nc3-c3ccccc3)c2nc1NC(=O)[C@@]1(C(F)(F)F)CCN(C)C1 (single isomer, unassigned) [Example 394, (R)—N-(7-methoxy-4-(1-methyl-3-phenyl-1H-pyrazol-4-yl)pyrido[3,2-d]pyrimidin-6-yl)-1-methyl-3-(trifluoromethyl) pyrrolidine-3-carboxamide or (S)—N-(7-methoxy-4-(1-methyl-3-phenyl-1H-pyrazol-4-yl)pyrido[3,2-d]pyrimidin-6-yl)-1-methyl-3-(trifluoromethyl) pyrrolidine-3-carboxamide]
0.7	0.4	1.7	Cn1cc(-c2cc(F)c3c(-c4cn(C)nc4-c4ccccc4)ncnc3c2)cn1 [Example 439, 5-fluoro-7-(1-methyl-1H-pyrazol-4-yl)-4-(1-methyl-3-phenyl-1H-pyrazol-4-yl)quinazoline]
1.1	0.5	0.7	COc1cc2ncnc(-c3cn(C)nc3-c3ccc(F)cc3)c2nc1NC(=O)C1(C(F)(F)F)CC1 [Example 362, N-(4-(3-(4-fluorophenyl)-1-methyl-1H-pyrazol-4-yl)-7-methoxypyrido[3,2-d]pyrimidin-6-yl)-1-(trifluoromethyl)cyclopropane-1-carboxamide]
1.4	0.9	0.8	CCn1cc(-c2ncnc3cc(OC)c(NC(=O)C4(C(F)(F)F)CC4)nc23)c(-c2ccccc2)n1 [Example 371, N-(4-(1-ethyl-3-phenyl-1H-pyrazol-4-yl)-7-methoxypyrido[3,2-d]pyrimidin-6-yl)-1-(trifluoromethyl)cyclopropane-1-carboxamide]
4.1	1.8	5.2	COc1cc2ncnc(-c3cn(C)nc3-c3ccccc3)c2cc1NC(=O)N1C[C@@H](C)N(C)C[C@@H]1C [Example 182, (2S,5R)—N-(7-methoxy-4-(1-methyl-3-phenyl-1H-pyrazol-4-yl)quinazolin-6-yl)-2,4,5-trimethylpiperazine-1-carboxamide]
5.9	6.7	25.6	COc1cc2ncnc(-c3cn(C)nc3-c3ccccc3)c2nc1O[C@H](C)c1nnc(C)o1 [Example 38, (R)-2-(1-((7-methoxy-4-(1-methyl-3-phenyl-1H-pyrazol-4-yl)pyrido[3,2-d]pyrimidin-6-yl)oxy)ethyl)-5-methyl-1,3,4-oxadiazole]
3.3	1.3	6.5	CCn1cc(-c2ncnc3cc(OC)c([C@H](C)O)cc23)c(-c2ccccc2)n1 (single isomer, unassigned) [Example 105, (S)-1-(4-(1-ethyl-3-phenyl-1H-pyrazol-4-yl)-7-methoxyquinazolin-6-yl)ethan-1-ol or (R)-1-(4-(1-ethyl-3-phenyl-1H-pyrazol-4-yl)-7-methoxyquinazolin-6-yl)ethan-1-ol]
48.7	13.4	184	COc1cc2ncnc(-c3cn(C(F)(F)F)nc3-c3ccccc3)c2cc1NC(=O)C12CC(C1)C2 [Example 484, N-(7-methoxy-4-(3-phenyl-1-(trifluoromethyl)-1H-pyrazol-4-yl)quinazolin-6-yl)bicyclo[1.1.1]pentane-1-carboxamide]
306	349	589	CCC(=O)Nc1cc2c(-c3cnn(C4CCOCC4)c3-c3ccccc3)ncnc2cc1OC [Example 498]
6.7	3.5	11.2	COc1cc2ncnc(-c3cn(C)nc3-c3ccccc3)c2cc1NC(=O)C12CC(F)(C1)C2 [Example 342, 3-fluoro-N-(7-methoxy-4-(1-methyl-3-phenyl-1H-pyrazol-4-yl)quinazolin-6-yl)bicyclo[1.1.1]pentane-1-carboxamide]

Compound	IC50 (EGFR L858R) [nM]	IC50 (EGFR (d746-750)) [nM]	IC50 [1] [nM]
COc1cc2ncnc(-c3cn(C)nc3-c3ccccc3)c2cc1OC(=O)N1C(C)CN(C)C[C@H]1C (stereo in doubt) [Example 90, 7-methoxy-4-(1-methyl-3-phenyl-1H-pyrazol-4-yl)quinazolin-6-yl (2R,6R)-2,4,6-trimethylpiperazine-1-carboxylate]	14	8.5	31.6
